According to ChEMBL document CHEMBL4428093, “One pot Click chemistry: A three component reaction for the synthesis of 2-mercaptobenzimidazole linked coumarinyl triazoles as anti-tubercular agents” (2016):
Converted amounts (≈) assume the structure as drawn.

Experiments:
[1] = system: Mycobacterium tuberculosis; test: Antituberculosis activity against Mycobacterium tuberculosis H37Rv after 5 days by MABA method; assay type: functional; conditions: 120 h
[2] = system: Mycobacterium tuberculosis; test: Potency index, ratio of streptomycin MIC to compound MIC for Mycobacterium tuberculosis H37Rv; assay type: functional

SMILES | MIC [1] [µM] | Ratio [2]
O=c1cc(Cn2cc(CSc3nc4ccccc4[nH]3)nn2)c2ccc3ccccc3c2o1 | 28.4 (≈ 12.5 µg/mL) | –
O=c1cc(Cn2cc(CSc3nc4ccccc4[nH]3)nn2)c2ccc(Cl)cc2o1 | 7.3 (≈ 3.09 µg/mL) | –
COc1ccc2oc(=O)cc(Cn3cc(CSc4nc5ccccc5[nH]4)nn3)c2c1 | 29.8 (≈ 12.5 µg/mL) | –
Cc1cccc2c(Cn3cc(CSc4nc5ccccc5[nH]4)nn3)cc(=O)[nH]c12 | 7.7 (≈ 3.1 µg/mL) | –
Cc1ccc2oc(=O)cc(Cn3cc(CSc4nc5ccccc5[nH]4)nn3)c2c1 | 7.7 (≈ 3.11 µg/mL) | –
O=c1cc(Cn2cc(CSc3nc4ccccc4[nH]3)nn2)c2ccccc2[nH]1 | 32.2 (≈ 12.5 µg/mL) | –
O=c1cc(Cn2cc(CSc3nc4ccccc4[nH]3)nn2)c2cc(Cl)ccc2[nH]1 | 29.6 (≈ 12.5 µg/mL) | –
Cc1cc(C)c2c(Cn3cc(CSc4nc5ccccc5[nH]4)nn3)cc(=O)oc2c1 | 3.8 (≈ 1.59 µg/mL) | 3
O=c1cc(Cn2cc(CSc3nc4ccccc4[nH]3)nn2)c2ccc(Cl)cc2[nH]1 | 14.8 (≈ 6.26 µg/mL) | –
Cc1ccc2c(Cn3cc(CSc4nc5ccccc5[nH]4)nn3)cc(=O)oc2c1C | 3.8 (≈ 1.59 µg/mL) | 3
COc1ccc2c(Cn3cc(CSc4nc5ccccc5[nH]4)nn3)cc(=O)oc2c1 | 59.6 (≈ 25 µg/mL) | –
O=c1cc(Cn2cc(CSc3nc4ccccc4[nH]3)nn2)c2ccc(O)cc2o1 | 30.8 (≈ 12.5 µg/mL) | –
Cc1ccc2c(Cn3cc(CSc4nc5ccccc5[nH]4)nn3)cc(=O)oc2c1 | 7.7 (≈ 3.11 µg/mL) | –
O=c1cc(Cn2cc(CSc3nc4ccccc4[nH]3)nn2)c2c(ccc3ccccc32)o1 | 14.2 (≈ 6.24 µg/mL) | –
O=C(O)c1cn(C2CC2)c2cc(N3CCNCC3)c(F)cc2c1=O [CIPROFLOXACIN] | 9.4 (≈ 3.11 µg/mL) | –
NC(=O)c1cnccn1 [PYRAZINAMIDE] | 25.3 (≈ 3.11 µg/mL) | –
CN[C@@H]1[C@H](O[C@H]2[C@H](O[C@H]3[C@H](O)[C@@H](O)[C@H](N=C(N)N)[C@@H](O)[C@@H]3N=C(N)N)O[C@@H](C)[C@]2(O)C=O)O[C@@H](CO)[C@H](O)[C@H]1O [STREPTOMYCIN] | 10.7 (≈ 6.22 µg/mL) | –
